Experimental data taken from paper PMC6429214, “Design, Synthesis and Biological Evaluation of Isoxazole-Based CK1 Inhibitors Modified with Chiral Pyrrolidine Scaffolds” (Molecules, 2019).

Experiments:
Assay in all cases: 33PanQinase panel
Assay type in all cases: biochemical
ARK5 = molecular target: T1, ARK5 (Homo sapiens, UniProt O60285); settings: ARK5, 1 µM; read-out: Residual Activity (%)
T1 construct: purchased ProQinase
Method in brief: (§1)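 Radiometric 33PanQinase activity assay, compound tested once at 1 µM, 1% DMSO final. Readout: % residual activity vs DMSO control.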

AXL = molecular target: T2, AXL (Homo sapiens, UniProt P30530); settings: read-out: Residual Activity (%)
T2 construct: purchased ProQinase
Method in brief: as §1

CAMK2B = molecular target: T3, CAMK2B (Homo sapiens, UniProt Q13554); settings: read-out: Residual Activity (%)
T3 construct: purchased ProQinase
T3 sequence (Q13554 whole entry): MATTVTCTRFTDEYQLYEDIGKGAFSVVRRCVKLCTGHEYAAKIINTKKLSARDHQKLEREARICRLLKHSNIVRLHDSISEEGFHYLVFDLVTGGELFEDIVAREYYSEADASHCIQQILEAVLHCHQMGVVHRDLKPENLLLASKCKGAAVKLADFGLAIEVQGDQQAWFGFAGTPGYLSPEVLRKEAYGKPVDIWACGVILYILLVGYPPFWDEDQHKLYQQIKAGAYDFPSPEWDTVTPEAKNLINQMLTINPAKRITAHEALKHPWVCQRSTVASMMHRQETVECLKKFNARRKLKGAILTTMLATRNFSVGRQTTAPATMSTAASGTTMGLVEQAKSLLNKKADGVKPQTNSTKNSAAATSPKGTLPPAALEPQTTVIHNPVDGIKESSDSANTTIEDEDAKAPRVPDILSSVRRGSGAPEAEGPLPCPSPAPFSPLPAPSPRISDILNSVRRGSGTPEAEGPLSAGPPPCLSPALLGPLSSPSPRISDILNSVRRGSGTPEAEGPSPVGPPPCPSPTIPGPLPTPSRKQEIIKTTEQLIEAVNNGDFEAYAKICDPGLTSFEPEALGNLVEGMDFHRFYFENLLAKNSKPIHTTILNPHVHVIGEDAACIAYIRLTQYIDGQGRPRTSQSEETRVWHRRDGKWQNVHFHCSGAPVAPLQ
Method in brief: as §1

CDK16/CycY = molecular target: T4, CDK16/CycY (Homo sapiens, UniProt Q00536); settings: read-out: Residual Activity (%)
T4 construct: purchased ProQinase
Method in brief: as §1

CDK3/CycC = molecular target: T5, CDK3/CycC (Homo sapiens, UniProt Q00526); settings: read-out: Residual Activity (%)
T5 construct: purchased ProQinase
Method in brief: as §1

CDK7/CycH/MAT1 = molecular target: T6, CDK7/CycH/MAT1 (Homo sapiens, UniProt P50613); settings: CDK7/CycH/MAT1, 1 µM; read-out: Residual Activity (%)
T6 construct: purchased ProQinase
Method in brief: as §1

EIF2AK2 = molecular target: T7, EIF2AK2 (Homo sapiens, UniProt P19525); settings: EIF2AK2, 1 µM; read-out: Residual Activity (%)
T7 construct: purchased ProQinase
Method in brief: as §1

EPHB2 = molecular target: T8, EPHB2 (Homo sapiens, UniProt P29323); settings: EPHB2, 1 µM; read-out: Residual Activity (%)
T8 construct: purchased ProQinase
T8 sequence (P29323 19-1055): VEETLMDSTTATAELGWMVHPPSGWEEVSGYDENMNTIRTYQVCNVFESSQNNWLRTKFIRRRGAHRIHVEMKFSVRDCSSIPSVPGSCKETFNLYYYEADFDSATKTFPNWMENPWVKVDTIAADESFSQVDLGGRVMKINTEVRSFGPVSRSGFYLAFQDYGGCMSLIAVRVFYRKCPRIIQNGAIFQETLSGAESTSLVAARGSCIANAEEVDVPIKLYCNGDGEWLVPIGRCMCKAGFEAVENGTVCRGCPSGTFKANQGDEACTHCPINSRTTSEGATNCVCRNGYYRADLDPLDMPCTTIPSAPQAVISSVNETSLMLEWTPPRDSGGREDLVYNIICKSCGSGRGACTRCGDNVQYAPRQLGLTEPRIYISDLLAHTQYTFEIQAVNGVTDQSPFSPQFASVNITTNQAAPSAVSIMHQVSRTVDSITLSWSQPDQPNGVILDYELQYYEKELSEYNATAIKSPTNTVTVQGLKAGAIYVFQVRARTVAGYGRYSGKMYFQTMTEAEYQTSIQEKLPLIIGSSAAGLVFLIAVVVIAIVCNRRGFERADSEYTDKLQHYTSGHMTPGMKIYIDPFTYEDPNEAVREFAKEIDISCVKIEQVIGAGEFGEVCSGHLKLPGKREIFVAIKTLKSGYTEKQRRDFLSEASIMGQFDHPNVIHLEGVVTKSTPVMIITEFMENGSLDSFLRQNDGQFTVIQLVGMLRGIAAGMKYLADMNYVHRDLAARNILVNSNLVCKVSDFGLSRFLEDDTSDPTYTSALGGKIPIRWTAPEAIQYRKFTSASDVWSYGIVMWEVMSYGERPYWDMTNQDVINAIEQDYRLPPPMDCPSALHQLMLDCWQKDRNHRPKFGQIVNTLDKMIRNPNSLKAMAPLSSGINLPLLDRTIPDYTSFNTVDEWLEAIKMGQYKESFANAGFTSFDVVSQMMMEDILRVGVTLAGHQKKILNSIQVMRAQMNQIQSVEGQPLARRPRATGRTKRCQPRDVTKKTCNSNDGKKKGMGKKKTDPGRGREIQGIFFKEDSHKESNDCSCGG
Method in brief: as §1

ERBB4 = molecular target: T9, ERBB4 (Homo sapiens, UniProt Q15303); settings: ERBB4, 1 µM; read-out: Residual Activity (%)
T9 construct: purchased ProQinase
T9 sequence (Q15303 26-1308): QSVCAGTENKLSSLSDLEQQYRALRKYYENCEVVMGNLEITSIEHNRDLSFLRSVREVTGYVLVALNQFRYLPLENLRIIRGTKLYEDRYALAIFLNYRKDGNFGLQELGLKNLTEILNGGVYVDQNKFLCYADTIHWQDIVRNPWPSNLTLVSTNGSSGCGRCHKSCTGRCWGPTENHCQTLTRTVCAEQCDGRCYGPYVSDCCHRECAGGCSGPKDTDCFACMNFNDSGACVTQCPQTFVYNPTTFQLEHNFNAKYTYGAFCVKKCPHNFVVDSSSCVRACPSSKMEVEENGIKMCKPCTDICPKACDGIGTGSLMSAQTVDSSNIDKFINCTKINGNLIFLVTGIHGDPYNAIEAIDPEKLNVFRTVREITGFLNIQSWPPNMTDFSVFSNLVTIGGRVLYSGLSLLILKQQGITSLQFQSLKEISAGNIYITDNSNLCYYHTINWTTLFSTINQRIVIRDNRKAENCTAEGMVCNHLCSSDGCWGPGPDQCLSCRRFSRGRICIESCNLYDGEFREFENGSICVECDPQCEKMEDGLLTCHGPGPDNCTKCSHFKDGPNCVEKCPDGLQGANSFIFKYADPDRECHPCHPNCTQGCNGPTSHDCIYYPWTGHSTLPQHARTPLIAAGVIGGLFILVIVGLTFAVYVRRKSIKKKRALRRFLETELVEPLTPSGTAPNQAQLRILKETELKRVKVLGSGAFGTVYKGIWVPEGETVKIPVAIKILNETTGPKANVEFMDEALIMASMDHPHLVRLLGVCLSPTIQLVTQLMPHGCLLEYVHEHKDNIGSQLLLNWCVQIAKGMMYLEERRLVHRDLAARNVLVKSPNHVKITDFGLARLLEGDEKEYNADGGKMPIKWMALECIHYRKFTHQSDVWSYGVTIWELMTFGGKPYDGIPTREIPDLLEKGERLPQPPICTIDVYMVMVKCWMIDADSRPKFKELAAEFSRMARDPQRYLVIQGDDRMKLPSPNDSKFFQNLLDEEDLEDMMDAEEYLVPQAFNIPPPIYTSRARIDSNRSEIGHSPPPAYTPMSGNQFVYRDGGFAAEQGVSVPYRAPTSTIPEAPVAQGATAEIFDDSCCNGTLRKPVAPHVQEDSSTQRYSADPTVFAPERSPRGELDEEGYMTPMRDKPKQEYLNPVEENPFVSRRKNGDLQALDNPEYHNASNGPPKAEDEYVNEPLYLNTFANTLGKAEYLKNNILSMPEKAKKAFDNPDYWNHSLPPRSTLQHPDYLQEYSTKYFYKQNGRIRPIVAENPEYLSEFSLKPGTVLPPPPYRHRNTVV
Method in brief: as §1

INSR-R = molecular target: T10, INSR-R (Homo sapiens, UniProt P14616); settings: read-out: Residual Activity (%)
T10 construct: purchased ProQinase
Method in brief: as §1

JAK2 = molecular target: T11, JAK2 (Homo sapiens, UniProt O60674); settings: JAK2, 1 µM; read-out: Residual Activity (%)
T11 construct: purchased ProQinase
Method in brief: as §1

MARK3 = molecular target: T12, MARK3 (Homo sapiens, UniProt P27448); settings: MARK3, 1 µM; read-out: Residual Activity (%)
T12 construct: purchased ProQinase
Method in brief: as §1

NEK3 = molecular target: T13, NEK3 (Homo sapiens, UniProt P51956); settings: NEK3, 1 µM; read-out: Residual Activity (%)
T13 construct: purchased ProQinase
Method in brief: as §1

NIK = molecular target: T14, NIK (Homo sapiens, UniProt Q99558); settings: read-out: Residual Activity (%)
T14 construct: purchased ProQinase
Method in brief: as §1

PAK7 = molecular target: T15, PAK7 (Homo sapiens, UniProt Q9P286); settings: PAK7, 1 µM; read-out: Residual Activity (%)
T15 construct: purchased ProQinase
Method in brief: as §1

PHKG1 = molecular target: T16, PHKG1 (Homo sapiens, UniProt Q16816); settings: PHKG1, 1 µM; read-out: Residual Activity (%)
T16 construct: purchased ProQinase
Method in brief: as §1

PIM2 = molecular target: T17, PIM2 (Homo sapiens, UniProt Q9P1W9); settings: PIM2, 1 µM; read-out: Residual Activity (%)
T17 construct: purchased ProQinase
Method in brief: as §1

PKC-theta = molecular target: T18, PKC-theta (Homo sapiens, UniProt Q04759); settings: read-out: Residual Activity (%)
T18 construct: purchased ProQinase
T18 sequence (Q04759 whole entry): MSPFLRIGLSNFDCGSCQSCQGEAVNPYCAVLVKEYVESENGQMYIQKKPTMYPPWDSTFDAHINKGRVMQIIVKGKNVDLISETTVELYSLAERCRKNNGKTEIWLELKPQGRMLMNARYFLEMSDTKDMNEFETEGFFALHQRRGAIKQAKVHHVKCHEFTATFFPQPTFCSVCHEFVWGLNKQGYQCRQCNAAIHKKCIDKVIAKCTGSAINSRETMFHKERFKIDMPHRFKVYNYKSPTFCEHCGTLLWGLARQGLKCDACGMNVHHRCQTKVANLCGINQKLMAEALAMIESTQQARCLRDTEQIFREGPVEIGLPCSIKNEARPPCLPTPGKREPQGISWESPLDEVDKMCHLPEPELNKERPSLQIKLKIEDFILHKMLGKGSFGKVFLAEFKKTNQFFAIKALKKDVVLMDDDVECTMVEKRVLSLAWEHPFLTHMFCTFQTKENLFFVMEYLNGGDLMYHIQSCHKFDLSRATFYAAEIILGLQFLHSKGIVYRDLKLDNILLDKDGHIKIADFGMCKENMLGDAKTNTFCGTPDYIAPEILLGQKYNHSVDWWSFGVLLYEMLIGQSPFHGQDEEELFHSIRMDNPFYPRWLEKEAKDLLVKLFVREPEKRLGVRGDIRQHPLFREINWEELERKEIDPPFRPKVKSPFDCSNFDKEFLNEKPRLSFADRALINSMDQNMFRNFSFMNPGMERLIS
Method in brief: as §1

PLK3 = molecular target: T19, PLK3 (Homo sapiens, UniProt Q9H4B4); settings: PLK3, 1 µM; read-out: Residual Activity (%)
T19 construct: purchased ProQinase
Method in brief: as §1

RON = molecular target: T20, RON (Homo sapiens, UniProt Q04912); settings: read-out: Residual Activity (%)
T20 construct: purchased ProQinase
T20 sequence (Q04912 25-1400): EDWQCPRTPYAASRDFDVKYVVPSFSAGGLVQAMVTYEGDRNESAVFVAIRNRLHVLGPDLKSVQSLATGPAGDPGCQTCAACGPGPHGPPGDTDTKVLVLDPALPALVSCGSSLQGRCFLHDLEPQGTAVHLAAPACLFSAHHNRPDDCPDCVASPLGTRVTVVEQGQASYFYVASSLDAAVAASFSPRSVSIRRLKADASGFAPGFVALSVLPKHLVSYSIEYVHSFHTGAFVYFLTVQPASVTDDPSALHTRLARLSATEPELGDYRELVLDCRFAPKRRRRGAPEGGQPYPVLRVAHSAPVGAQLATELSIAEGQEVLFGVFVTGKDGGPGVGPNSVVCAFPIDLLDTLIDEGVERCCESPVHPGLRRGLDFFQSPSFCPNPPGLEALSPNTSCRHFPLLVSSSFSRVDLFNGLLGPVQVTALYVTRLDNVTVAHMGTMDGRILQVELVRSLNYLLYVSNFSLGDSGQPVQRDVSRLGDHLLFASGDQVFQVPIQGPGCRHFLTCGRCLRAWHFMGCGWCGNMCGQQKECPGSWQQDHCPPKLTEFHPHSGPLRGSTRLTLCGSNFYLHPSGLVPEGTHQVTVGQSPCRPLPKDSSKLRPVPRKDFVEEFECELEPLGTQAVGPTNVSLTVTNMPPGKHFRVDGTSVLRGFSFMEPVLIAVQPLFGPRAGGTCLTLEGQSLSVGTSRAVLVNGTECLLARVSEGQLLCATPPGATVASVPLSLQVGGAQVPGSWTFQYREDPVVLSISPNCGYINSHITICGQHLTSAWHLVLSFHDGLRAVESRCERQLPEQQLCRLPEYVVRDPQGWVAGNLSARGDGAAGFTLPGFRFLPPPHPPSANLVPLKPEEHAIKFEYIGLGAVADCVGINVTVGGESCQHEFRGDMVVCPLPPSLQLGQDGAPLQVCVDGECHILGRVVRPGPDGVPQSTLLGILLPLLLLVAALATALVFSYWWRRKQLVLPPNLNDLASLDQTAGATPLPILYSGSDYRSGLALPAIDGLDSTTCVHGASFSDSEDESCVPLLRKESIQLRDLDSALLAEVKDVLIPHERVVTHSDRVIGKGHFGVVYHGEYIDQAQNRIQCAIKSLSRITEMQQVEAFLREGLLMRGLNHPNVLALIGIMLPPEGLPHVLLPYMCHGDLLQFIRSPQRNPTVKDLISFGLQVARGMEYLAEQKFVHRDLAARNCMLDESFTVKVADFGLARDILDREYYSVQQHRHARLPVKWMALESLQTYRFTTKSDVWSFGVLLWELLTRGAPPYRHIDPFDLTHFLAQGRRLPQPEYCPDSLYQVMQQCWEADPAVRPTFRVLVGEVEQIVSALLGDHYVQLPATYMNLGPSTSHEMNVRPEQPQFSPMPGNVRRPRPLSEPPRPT
Method in brief: as §1

RPS6KA4 = molecular target: T21, RPS6KA4 (Homo sapiens, UniProt O75676); settings: RPS6KA4, 1 µM; read-out: Residual Activity (%)
T21 construct: purchased ProQinase
Method in brief: as §1

SIK2 = molecular target: T22, SIK2 (Homo sapiens, UniProt Q9H0K1); settings: SIK2, 1 µM; read-out: Residual Activity (%)
T22 construct: purchased ProQinase
Method in brief: as §1

SRC (GST-HIS-tag) = molecular target: T23, SRC (GST-HIS-tag) (Homo sapiens, UniProt P12931); settings: read-out: Residual Activity (%)
T23 construct: purchased ProQinase
Method in brief: as §1

SRMS = molecular target: T24, SRMS (Homo sapiens, UniProt Q9H3Y6); settings: read-out: Residual Activity (%)
T24 construct: purchased ProQinase
Method in brief: as §1

TSF1 = molecular target: T25, TSF1 (Homo sapiens, UniProt O75716); settings: TSF1, 1 µM; read-out: Residual Activity (%)
T25 construct: purchased ProQinase
Method in brief: as §1

VEGF-R2 = molecular target: T26, VEGF-R2 (Homo sapiens, UniProt P35968); settings: VEGF-R2, 1 µM; read-out: Residual Activity (%)
T26 construct: purchased ProQinase
Method in brief: as §1

WNK2 = molecular target: T27, WNK2 (Homo sapiens, UniProt Q9Y3S1); settings: WNK2, 1 µM; read-out: Residual Activity (%)
T27 construct: purchased ProQinase
Method in brief: as §1

p38-alpha = molecular target: T28, p38-alpha (Homo sapiens, UniProt Q16539); settings: read-out: Residual Activity (%)
T28 construct: purchased ProQinase
Method in brief: as §1

## COc1ccc(-c2cc(C(=O)Nc3cc(-c4c(-c5ccc(F)cc5)noc4C(C)C)ccn3)n(CC3NCC(O)C3O)c2)cc1 (stereo not shown) [29d]
ARK5
  remaining activity at 1 µM: 100%
AXL
  remaining activity at 1 µM: 110%
CAMK2B
  remaining activity at 1 µM: 102%
CDK16/CycY
  remaining activity at 1 µM: 112%
CDK3/CycC
  remaining activity at 1 µM: 100%
CDK7/CycH/MAT1
  remaining activity at 1 µM: 98%
EIF2AK2
  remaining activity at 1 µM: 132%
EPHB2
  remaining activity at 1 µM: 88%
ERBB4
  remaining activity at 1 µM: 103%
INSR-R
  remaining activity at 1 µM: 89%
JAK2
  remaining activity at 1 µM: 80%
MARK3
  remaining activity at 1 µM: 96%
NEK3
  remaining activity at 1 µM: 96%
NIK
  remaining activity at 1 µM: 98%
PAK7
  remaining activity at 1 µM: 97%
PHKG1
  remaining activity at 1 µM: 90%
PIM2
  remaining activity at 1 µM: 84%
PKC-theta
  remaining activity at 1 µM: 101%
PLK3
  remaining activity at 1 µM: 112%
RON
  remaining activity at 1 µM: 115%
RPS6KA4
  remaining activity at 1 µM: 105%
SIK2
  remaining activity at 1 µM: 98%
SRC (GST-HIS-tag)
  remaining activity at 1 µM: 125%
SRMS
  remaining activity at 1 µM: 127%
TSF1
  remaining activity at 1 µM: 86%
VEGF-R2
  remaining activity at 1 µM: 110%
WNK2
  remaining activity at 1 µM: 103%
p38-alpha
  remaining activity at 1 µM: 17%
